# What was measured:
# Format in all cases: biochemical
# [1] = target: T1, aggregated beta-amyloid; human Aβ 1-42 (UniProtKB-P05067, a.a. 672-713) (Homo sapiens, UniProt P05067); assay: Beta-amyloid aggregate degradation test (thioflavin T assay); details: pre-aggregated Aβ, further 3 days at 37° C., ThT fluorescence vs control = 100%
# T1 construct: UniProtKB-P05067, a.a; 672-713
# Procedure: Aβ (beta-amyloid; human A3 1-42 monomer (UniProtKB-P05067, a.a. 672-713)) was dissolved at a concentration of 10 mM in dimethyl sulfoxide (DMSO), and the resulting solution was diluted to 250 μM using distilled water, and then incubated at 37° C. for 3 days to induce aggregation. The aggregated beta-amyloid was added with each test compound in an amount of 50 or 500 μM such that the final concentration reached 25 μM, and was further cultured at 37° C. for 3 days to induce reaction. The aggregate degradation effect of each test compound was measured by thioflavin T (ThT) assay (see Example 2). Specifically, 25 μL of the reaction solution was charged in each well of a 96-well plate for fluorescence analysis and 75 μL of the prepared thioflavin-T solution was charged in each well. The reaction was allowed to proceed at room temperature in a dark laboratory for 5 minutes and then fluorescence values were measured at an excitation wavelength of 450 nm and an emission wavelength of 485 nm using a multi-mode microplate reader. The ratio of the fluorescence value measured in the group obtained by treating with each test compound to 100% of the fluorescence value of the group (control group) obtained by treating only with beta-amyloids and inducing aggregation for 3 days is set forth in Table 4 below: […]
# [2] = target: T2, Tau protein (wild-type K18) (Homo sapiens, UniProt P10636); assay: Tau protein aggregation inhibition test (thioflavin T assay); details: heparin/DTT-induced aggregation, 37° C. 5 days, ThT fluorescence vs tau-only control = 100%
# T2 construct: Tau protein (wild-type K18)
# T2 sequence (P10636 561-685 limits assumed): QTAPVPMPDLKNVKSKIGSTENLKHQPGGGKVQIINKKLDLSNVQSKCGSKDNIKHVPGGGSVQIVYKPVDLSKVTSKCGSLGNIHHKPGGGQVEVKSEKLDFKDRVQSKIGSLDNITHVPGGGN
# Procedure: (§1) Tau protein (wild-type K18) was dissolved in phosphate-buffered saline (PBS, pH 7.4) at a concentration of 1 mg/mL to prepare a tau protein solution. In order to induce aggregation of tau proteins, 0.1 mg/mL of heparin and 100 μM dithiothreitol (DTT) were added to 1 mg/mL of the tau protein solution, followed by incubation at 37° C. for 5 days. At this time, the result was mixed with each test compound (50, 500 μM) such that the final concentration reached 0.5 mg/mL, followed by further incubation.
# The inhibitory effect of each compound against tau aggregation was measured based on the intensity of fluorescence by thioflavin T (ThT) assay (see Example 2). More specifically, 25 μL of the reaction solution was charged in each well of a 96-well plate for fluorescence analysis, and 75 μL of the prepared thioflavin-T solution was then charged in each well. The reaction was allowed to proceed at room temperature in a dark laboratory for 5 minutes, and then fluorescence values were measured at an excitation wavelength of 450 nm and an emission wavelength of 485 nm using a multi-mode microplate reader.
# The ratio of the fluorescence value measured in the group obtained by treating with each test compound to 100% of the fluorescence value of the group (control group) obtained by treating only with tau proteins and inducing aggregation for 5 days is set forth in Table 5 below: […]
# [3] = target: T3, aggregated tau protein (wild-type K18) (Homo sapiens, UniProt P10636); assay: Tau protein aggregate degradation test (thioflavin T assay); details: pre-aggregated tau, further 5 days at 37° C., ThT fluorescence vs control = 100%
# T3 construct: Tau protein (wild-type K18)
# T3 sequence (P10636 561-685 limits assumed): as above
# Procedure: as §1, with “solution.” for “solution. In order to induce aggregation of tau proteins,”, “days to induce tau protein aggregation. The aggregated tau protein” for “days. At this time, the result”, “in an amount of 50 or” for “(50,”, “μM” for “μM)”, “incubation at 37° C. for 5 days to induce reaction.” for “incubation.”
# The degradation effect of each compound on the tau aggregates was measured by thioflavin T (ThT) assay (see Example 2). More specifically, 25 μL of the reaction solution was charged in each well of a 96-well plate for fluorescence analysis and 75 μL of the prepared thioflavin-T solution was charged in each well. The reaction was allowed to proceed at room temperature in a dark laboratory for 5 minutes and then fluorescence values were measured at an excitation wavelength of 450 nm and an emission wavelength of 485 nm using a multi-mode microplate reader.
# The ratio of the fluorescence value measured in the group obtained by treating with each test compound to 100% of the fluorescence value of the group (control group) obtained by treating only with tau proteins and inducing aggregation for 5 days is set forth in Table 6 below: […]
# T1 sequence (P05067 672-713): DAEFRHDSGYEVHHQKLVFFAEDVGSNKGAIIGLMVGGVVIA
Compound,Beta-amyloid aggregate degradation activity (% of control) ([1]; 50 uM test compound),Beta-amyloid aggregate degradation activity (% of control) ([1]; 500 uM test compound),"Tau aggregation remaining (ThT fluorescence, % of tau-only control) ([2]; 500 uM test compound)",ThT fluorescence remaining (% of control) ([3]; 50 uM test compound),ThT fluorescence remaining (% of control) ([3]; 500 uM test compound),"Tau aggregation remaining (ThT fluorescence, % of tau-only control) ([2]; 50 uM test compound)"
"CCN1C(=O)/C(=C/c2ccoc2)NC1=S [DN204814, (Z)-3-ethyl-5-(furan-3-ylmethylene)-2-thioxoimidazolidin-4-one]",58.02 % of control,−40.60 % of control,28.47 % of control,30.07 % of control,−22.72 % of control,–
"CCN1C(=O)/C(=C/c2c[nH]c3ncccc23)NC1=S [DN204816, (Z)-5-((1H-pyrrolo[2,3-b]pyridin-3-yl)methylene)-3-ethyl-2-thioxoimidazolidin-4-one]",–,92.41 % of control,56.3 % of control,40.39 % of control,33.92 % of control,81.42 % of control
"CCN1C(=O)/C(=C/c2c[nH]c3cccnc23)NC1=S [DN204817, (Z)-5-((1H-pyrrolo[3,2-b]pyridin-3-yl)methylene)-3-ethyl-2-thioxoimidazolidin-4-one]",–,78.39 % of control,66.18 % of control,49.84 % of control,43.06 % of control,87.3 % of control
"O=C1NC(=S)S/C1=C\c1csc2ccccc12 [DN204818, (Z)-5-(benzo[b]thiophen-3-ylmethylene)-2-thioxothiazolidin-4-one]",95.08 % of control,35.83 % of control,1.71 % of control,14.94 % of control,5.16 % of control,20.35 % of control
"CCN1C(=O)C(Cc2ccc3occc3c2)NC1=S (centres unmarked) [DN205353, 5-(benzofnran-5-ylmethyl)-3-ethyl-2-thioxoimidazolidin-4-one]",–,90.19 % of control,66.948 % of control,66.25 % of control,80.59 % of control,61.551 % of control
"O=C1NC(=S)S/C1=C\c1c[nH]c2ncccc12 [DN205355, (Z)-5-((1H-pyrrolo[2,3-b]pyridin-3-yl)methylene)-2-thioxothiazolidin-4-one]",93.80 % of control,44.61 % of control,25.883 % of control,49.41 % of control,30.65 % of control,40.038 % of control
"CCN1C(=O)/C(=C/c2c[nH]c3ccncc23)SC1=S [DN205780, (Z)-5-((1H-pyrrolo[3,2-c]pyridin-3-yl)methylene)-3-ethyl-2-thioxothiazolidin-4-one]",51.31 % of control,35.73 % of control,33.02 % of control,27.50 % of control,10.84 % of control,69.83 % of control
"CCN1C(=O)/C(=C/c2c[nH]c3cccnc23)SC1=S [DN205781, (Z)-5-((1H-pyrrolo[3,2-b]pyridin-3-yl)methylene)-3-ethyl-2-thioxothiazolidin-4-one]",85.76 % of control,55.35 % of control,52.99 % of control,28.74 % of control,23.79 % of control,74.46 % of control
